Data published in US20260364072A1, “METHODS FOR PROMOTING EXPANSION OF HUMAN CD34+ CELLS IN VIVO AND FOR PROMOTING NEURAL REGENERATION” (THE REGENTS OF THE UNIVERSITY OF CALIFORNIA, priority 2023, published 2026).

Tests used:
AZIN1 transcript = AZIN1 transcript editing by RESSqPCR in TF1a cells; format: cell-based, human; conditions: shADAR1-transduced cells treated with Rebecsinib compared with vehicle controls
Source text: (§1) For lentivirus-mediated knockdown of human ADAR1 in ADAR1 activation and RNA editing biomarker studies of the nanoluc-GFP reporter and endogenous transcripts, human leukemia cells were stably transduced with the lentiviral shRNA vectors targeting ADAR1 (shADAR1) or scrambled control (shCtrl) to ablate endogenous ADAR1 expression. The shRNA plasmids targeting ADAR1 (shADAR1) as well as the scrambled control (shCtrl) were purchased from VectorBuilder (Chicago, IL) (shCtrl: […] (SEQ ID NO:3) and shADAR1: […]) (SEQ ID NO:4). […] Viral titers were assessed by qRT-PCR and transduction efficiency was tested in 293T cells. […]
(§2) For quantitative analysis of splice isoform expression, RNA editing rates, and whole gene expression by qRT-PCR, cells or tissue fragments were harvested in RNA lysis buffer and total RNA was extracted using RNeasy mini or micro extraction kits (QIAGEN, Germantown, MD) following the manufacturer's protocol including a DNase incubation step to digest any trace genomic DNA present. Levels of ADAR1 variants and LSC-specific transcripts were quantified by qRT-PCR as previously described.^14 RNA-editing site-specific qRT-PCR (RESSqPCR) was performed for variants in AZIN1 transcripts.^53 Additional species-specific primers were also designed to quantify intron retention rates in cells treated with Rebecsinib as a biomarker of response to RNA splicing modulation. […]

normal HSPCs = assay: Normal cord blood HSPC engrafted mice; format: in vivo, human cells in Rag2-/-γc-/- mice
Procedure: To determine the sensitivity of normal HSPCs to Rebecsinib, human cord blood-derived CD34+ cells were transplanted into Rag2^−/−γc^−/− mice. After human cell engraftment was established (6 to 12 weeks), mice were treated with Rebecsinib twice-weekly for two weeks at doses equivalent to the maximum doses selected for in vivo LSC assays. The frequency of CD45^+ hematopoietic cells in bone marrow, peripheral blood, spleen, and thymus were unchanged between vehicle and Rebecsinib-treated groups that received a dose of 10 mg/kg. […] Thus, a dose of 10 mg/kg in mice is sufficient to reduce in vivo sAML LSC burden while sparing normal HSPC development.
In humanized mouse models, sAML cells (CD34^+) from two unique […] patient samples that were splicing factor mutated or unmutated were utilized, including sAML50261 and sAML2008-5.^14 For in vivo efficacy and therapeutic index studies, sAML CD34^+ cells, or normal human cord blood-derived or aged bone marrow-derived HSPCs (CD34^+), were transplanted (50,000-200,000 cells per mouse) intrahepatically into neonatal Rag2^−/−γc^−/− mice, or intravenously into adult NSG-SGM3 mice (Jackson Laboratories, Bar Harbor, ME). A subset of experiments was performed with normal aged bone marrow cells that were transduced with the lentiviral ADAR1 nanoluc-GFP reporter vector prior to transplant. For transplantation into adult mice, animals were irradiated with ^137Cs at a dose of 150 cGy 24 hr before IV transplantation. After engraftment levels reached >1% human CD45^+ hematopoietic cells in the peripheral blood, animals were distributed among treatment groups for treatment with Rebecsinib or vehicle control essentially as previously described, with an increased dosing regimen of twice weekly (versus once weekly in prior studies)^14 and an optimized in vivo formulation (2% w/w EtOH, 5% w/v KOLLIPHOR HS™ 15 in 0.9% saline). For animals that received transplants of cells transduced with the lentiviral ADAR1 nanoluc-GFP reporter, mice were imaged 15 weeks after transplant on the IVIS 200, as previously described.^79 Following treatment with Rebecsinib (five intravenous doses total over a two-week period), hematopoietic tissues (peripheral blood, bone marrow, spleens) were collected and analyzed by flow cytometry as previously described.^14 For splice isoform-specific qRT-PCR or RNA-seq analyses on cells from in vivo studies, human CD34^+ LSC from bone marrows and spleens of engrafted mice were isolated by magnetic bead separation (Miltenyi Biotec).

ADAR1, CD44v3, MCL1-L = assay: LSC-associated transcripts and ADAR1 activity after treatment or ADAR1 shRNA knockdown; format: cell-based, human; conditions: phenocopied ADAR1 shRNA knockdown
Source text: as §1, §2

ADAR1 = ADAR1 nanoluc-GFP reporter assay in primary high-risk MF CD34+ cells in stromal co-culture; format: cell-based, human; conditions: primary high-risk MF HPCs, 72 hr; p<0.05 compared to DMSO
Source text: (FIG. 27F) Luminescence-based quantification of ADAR1-dependent nanoluciferase signals in CD34^+ cells from primary, high-risk MF samples (*=untreated patient) after in vitro transduction with the ADAR1 nanoluc-GFP reporter and treatment with vehicle control (DMSO) or Rebecsinib (72 hr). Relative luciferase signals were normalized to cell viability for each condition. Data are represented as mean±SEM. p<0.05 compared to DMSO controls by pairwise t-test.
For nanoluciferase RNA editing activity assays, CD34^+ selected cells from primary high-risk MF samples were lentivirally transduced with ADAR1 nanoluc-GFP reporter for 48 hr, followed by treatment with DMSO or Rebecsinib in stromal co-culture for 72 hr. Luminescence reporter activity was measured in 10,000 cells by NANO-GLO LUCIFERASE ASSAY™ and values were normalized to cell viability. Cell viability was measured in 10,000 cells by CellTiter-Glo Luciferase Assay (Promega). A pilot in vivo reporter assay was also performed using TF-1a cells that were stably transduced with the ADAR1 nanoluc-GFP reporter. […] Cells were transplanted into neonatal Rag2^−/−γc^−/− mice (70,000 cells per mouse), and animals were imaged 4 weeks after transplant on the IVIS 200, as previously described.^7,9 Human cell engraftment was also confirmed in the peripheral blood in the same week as imaging.

With CC[C@H](OC)[C@@H](C)[C@H]1O[C@@H]1[C@@H](O)[C@H](C)/C=C/C=C(\C)[C@H]1OC(=O)C[C@H](O)CC[C@@](C)(O)[C@@H](OC(C)=O)/C=C/[C@@H]1C [Rebecsinib] the “AZIN1 transcript editing activity (RESSqPCR)” value (AZIN1 transcript) was “low levels of AZIN1 transcript editing activity”, the “frequency of CD45+ hematopoietic cells in bone marrow, peripheral blood, spleen, and thymus” value (normal HSPCs; 10 mg/kg, twice-weekly for two weeks) was “unchanged” and the “human CD19+ cells in peripheral blood” value (normal HSPCs; 20 mg/kg) was “reduction”. For the same compound, the “human CD45+ and CD19+ cells in bone marrow or spleen” value (normal HSPCs; 20 mg/kg) was “not in the bone marrow or spleen”, the “human CD45+ cells in peripheral blood” value (normal HSPCs; 20 mg/kg) was “reduction” and the systemic toxicity (normal HSPCs; 2 weeks of dosing at 10 or 20 mg/kg) was “no evidence of Rebecsinib-related systemic toxicity”. The “CD19+ B cells in bone marrow, peripheral blood, or spleen” value (normal HSPCs; vs vehicle) was “no significant reduction”, the “human CD3+ T cells in thymus or peripheral blood” value (normal HSPCs; vs vehicle) was “no significant reduction” and the ADAR1 activity (ADAR1, CD44v3, MCL1-L) was “repression of ADAR1 activity”. For the same compound, the “expression of LSC-associated transcripts, such as CD44v3 and MCL1-L” value (ADAR1, CD44v3, MCL1-L) was “reduced expression of LSC-associated transcripts” and the “ADAR1 RNA editing activity (nanoluciferase signal)” value (ADAR1) was “significantly reduced ADAR1 RNA editing activity”.
